What was measured:
Format in all cases: in vivo
C. elegans [1] = experiment: Quantification of glutathione (GSH/GSSG-Glo)
Experimental: Sample preparation was performed as described previously with some modifications^6. From each condition 10,000 synchronized animals were harvested and washed 3 times with sterile water. […] To thoroughly lyse the worms, 5 cycles of freezing and thawing were performed in a water bath at 37° C., followed by a 1-min sonication. The samples were then centrifuged and the supernatant tested for protein estimation and GSH quantification. Total GSH, GSSG, and GSH/GSSG ratios were quantified using the GSH/GSSG-Glo assay kit (Promega) following the instructions of the manufacturer. Briefly, each sample was tested in triplicate in 96-well culture plates with total glutathione or GSSG lysis reagent, for total glutathione or GSSG measurement, respectively. The GSH probe, luciferin-NT, was converted to luciferin, which is coupled to a firefly luciferase. The plates were then read in an […] plate reader (Perkin Elmer, United States). The GSSG value was subtracted from the total glutathione to calculate GSH levels and GSH/GSSG ratio. Four biological replicates were analyzed for each condition.

C. elegans [2] = experiment: Peroxide treatment of mutant, RNAi or unstressed worms: MMP, OCR and growth read together
Description: C. elegans wild-type (N2) strain was received from Caenorhabditis Genetics Center, USA. Mutant strains were generated using the following primers. Idh-1: […] and […]; C31C9.2 (ghpr-1): […] and […]and F41E6.5 (gox-1): […]and[…]. […] Progeny of the rescued strains were genotyped for homozygous deletion with PCR primers for three generations. All mutants were outcrossed at least twice with the wild type to eliminate background mutations. Double and triple mutants were obtained by crossing single or double mutants and selecting the homozygous progeny by PCR.
For RNAi experiments in liquid, E. coli HT115 containing L4440 empty vector or the indicated cDNA fragment in L4440 was inoculated in 100 ml of LB containing 100 μg/ml ampicillin and incubated overnight at 37° C. in a shaking incubator at 250 rpm. To induce the production of dsRNA, a final concentration 0.8 mM IPTG was added to the collected bacterial pellet diluted 100-fold and incubated overnight at 25° C. in a shaking incubator at 250 rpm. Bacteria were then pelleted by centrifugation at 4000 rpm for 5 mins and resuspended in 200 μl S-medium containing 100 μg/ml ampicillin and 0.8 mM IPTG.
A population of synchronized L1 larvae was added to 30-ml glass tubes containing 2.5 ml of S-complete medium (liquid culture)^2 and NA22 or induced RNAi bacteria at an OD600 of 1.9. […] Worms were incubated at 15° C. and 150 rpm in a shaking incubator for 2-6 days, refreshing the medium every 2 days.
Mitochondrial staining was performed as described previously^3,4. Briefly, L1 worms were grown on plate or in liquid culture for 2-3 days at 15° C. Subsequently, they were pelleted in a 15-ml tube, rinsed twice with H2O and resuspended in 100 μl of M9. 5 μM MitoTracker Red CMXRos (Thermo Fisher Scientific, Germany) in DMSO was added to the worm suspension and incubated in this solution for 1.5 hr at room temperature in the dark. Next, the excess dye was washed off with M9 buffer and worms were incubated in 100 μl M9 for 30 min to eliminate the excess dye in the gut. Finally, worms were paralyzed with 0.5 mM Levamizol (Sigma-Aldrich), placed on slides covered with a thin layer of 2% agarose on top of which the coverslip (22×22 mm, Menzel-Glaser no. 1) was fixed using nail polish. We used a Zeiss LSM 700 inverted laser scanning confocal microscope and a Zeiss LCI Plan-Neofluar 63×/1.3 ImmCorr DIC M27 objective to image mitochondria (Zeiss, Germany). MitoTracker Red CMXRos was excited at 555 nm and the emission above 560 nm was acquired by the second PMT. Optical sections at 0.1×0.1×0.5 μm^3 x-y-z resolution were collected in a 4D hyperstack. Final images were adjusted for intensity and merged in Fiji. No non-linear adjustments were made.
Synchronized L1 worms were incubated at 15° C. on plates or in liquid culture and exposed to different conditions as indicated. Single worms were selected randomly from the plates or aliquots were taken from the liquid cultures and added to NGM plates for immediate visualization. 25 worms per treatment were measured at 24-48 hr intervals and all growth curves were done four times. Images were analyzed using FIJI (Image J) software, with length measurements derived by the sum-total of a number of segmented lines of known length, down the center of the worm as described previously^5.
(§1) Oxygen consumption of worms was measured with a Seahorse XFe96 system (Seahorse Bioscience, North Billerica, MA), as previously described^4. L3 larvae of the different strains were grown on plates or in liquid culture and supplemented for 2-4 days as described for each experiment. After removing bacteria and debris, approximately 100 worms were pipetted into each well of a 96-well Seahorse XF^e assay plate and OCR was measured until it stabilized. Then, 3 subsequent measurements were made at 6.5-min intervals. Finally, the exact number of worms in each well was counted and used for normalization.

C. elegans [3] = experiment: Oxygen consumption rate (OCR), Seahorse XFe96; conditions: 100 mM H2O2 plus supplement (10 mM GA, 100 μM glycine or 500 μM L-serine)
Experimental: as §1, with “normalization. A small number of abnormal readings were also filtered out at this stage. On average, 7-8 wells (technical replicates) were used for each condition. Normalized OCR values were averaged for the last 3 measurements for each strain and condition. Four biological replicates were analyzed for each condition.” for “normalization.”

O=C(O)CO [GA, glycolic acid]
GSH/GSSG ratio (C. elegans [1]; H2O2+GA, control 107.5): 77.4 | Total glutathione (C. elegans [1]; H2O2 in the presence of GA (10 mM), 3 days): 91 % of the control | Oxidized form of glutathione (GSSG) (C. elegans [1]; H2O2 with addition of GA): 140 % of the control | Total glutathione, effect of GA addition (C. elegans [1]; peroxide-treated ghpr-1 and ghpr-1, gox-1, ldh-1 mutant strains): unaffected | Increase in GSSG, rescue by GA (C. elegans [1]; peroxide-treated ghpr-1 and triple mutants co-incubated with GA): not rescued | Impact on any of the parameters analyzed (FIGS. 1 and 2) (C. elegans [2]; GA supplementation in the absence of H2O2): does not have a significant impact | Restoration of MMP, OCR or growth rate (C. elegans [2]; H2O2, RNAi against mel-32 or gcst-1): none of these three compounds were able to restore | MMP, OCR, growth rate (C. elegans [2]; H2O2, worms fed with empty vector RNAi bacteria): restored parameters | Glycolate-mediated protection (MMP, OCR, growth) (C. elegans [2]; ghpr-1, gox-1, ldh-1 triple mutant, H2O2): totally abolished | Effect of glycolate on MMP, oxygen consumption rate and developmental rate (C. elegans [2]; ghpr-1 deletion mutant, H2O2 treatment): significantly reduced effect | Effect of glycolate on MMP, OCR or growth (C. elegans [2]; single mutants of gox-1 and ldh-1 or their double mutants, H2O2): no reduction in the effect | Respiration rate (OCR) (C. elegans [3]): able to restore both traits

From patent publication US20230414657A1, “Novel compositions for neutralizing toxic effects of hydrogen peroxide in living cells or tissues” (Dzala LLC, priority 2020, published 2023)
